Measured values taken from patent US6949528B1, “Compositions containing lysophosphatidic acids which inhibit apoptosis and uses thereof” (priority 1998, dated 2005).

B1: Ovalbumin: ovalbumin from chicken egg (protein, UniProt P01012 2-386, looked up)
Ovalbumin: GSIGAASMEFCFDVFKELKVHHANENIFYCPIAIMSALAMVYLGAKDSTRTQINKVVRFDKLPGFGDSIEAQCGTSVNVHSSLRDILNQITKPNDVYSFSLASRLYAEERYPILPEYLQCVKELYRGGLEPINFQTAADQARELINSWVESQTNGIIRNVLQPSSVDSQTAMVLVNAIVFKGLWEKAFKDEDTQAMPFRVTEQESKPVQMMYQIGLFRVASMASEKMKILELPFASGTMSMLVLLPDEVSGLEQLESIINFEKLTEWTSSNVMEERKIKVYLPRMKMEEKYNLTSVLMAMGITDVFSSSANLSGISSAESLKISQAVHAAHAEINEAGREVVGSAEAGVDAASVSEEFRADHPFLFCIKHIATNAVLFFGRCVSP

Assays:
[1] = Size shift assay (Superdex S75 column); assay type: binding; details: FIGS. 10A-10D
Experimental: Size shift assay. Size analysis of LPA both with and without protein was performed using a Superdex® S75 column (Pharmacia Biotech, Uppsala, Sweden). Soy LPA was combined in a chloroform solution with 0.5 Ci^3H-labeled 18:1-LPA (DuPont NEN Products, Boston, Mass.), dried under vacuum and resuspended by sonication in a buffered solution (50 mM ammonium bicarbonate, 154 mM sodium chloride, pH 8.0) in the presence or absence of test protein. The ammonium bicarbonate/sodium chloride solution was used as the mobile phase at a flow rate of 1 ml/min. One-minute fractions were collected for 30 minutes following sample injection. Fractions were counted in scintillant solution using a liquid scintillation counter (Beckman Instrument, Irvine, Calif.). Calibration was performed using a standard solution containing purified proteins (BioRad, Hercules, Calif.).

C3H/10T1/2 cells = assay: Effect of proteins on anti-apoptotic activity of soy LPA, C3H/10T1/2 cell assay; assay type: cell-based; details: for Protein +10 (g/mL Soy LPA, percent cells saved from apoptosis): 1:10 soy-LPA to protein (weight:weight); for Protein +10 (g/mL Soy LPA, percent cells saved from apoptosis) / Protein Alone (0.01%), percent cells saved from apoptosis: 24 hours serum deprivation; for Increase with LPA: difference protein + soy LPA minus protein alone; for Protein Alone (0.01%), percent cells saved from apoptosis: protein without LPA; for enhancement of the anti-apoptotic activity of soy-LPA (more than additive protection): soy-LPA added together with protein
Experimental: Soy derived LPA (soy-LPA) (Avanti® Polar Lipids, Inc., Alabaster, Ala.) was stored in an organic solution and was dried immediately prior to assay using a Speed Vac (Savant Instruments, Hicksville, N.Y.). Tested proteins were resuspended at 10_mg/mL in a bicarbonate buffered saline/EDTA solution (50_mM NH4HCO3, […] NaCl, 250_(M EDTA) prior to being added to dried soy-LPA at a 1:10_soy-LPA to protein (weight:weight) ratio. The mixture was then sonicated for 5 minutes using a high power 80 Watt sonication bath (Laboratory Supplies Co., Hicksville, N.Y.). Following sonication, concentrated LPA/protein mixtures were left standing for 15 minutes at room temperature prior to dilution in cell culture assay media.
The effect of various proteins on the ability of LPA to protect serum-starved cells from apoptotic death was measured using the C3H/10T1/2 cell assay, performed as described in Example 2, above. Log phase cells were seeded in 60 mm Petri dishes at 175-350 cells per cm^2 and maintained in Basal Medium Eagle (BME) supplemented with 10% fetal calf serum (Hyclone, Logan, Utah). At time zero, serum containing media was replaced with sterile filtered BME containing the LPA/protein mixture to be tested. After 24 hours of treatment, serum deprived release (SDR) cells (the apoptotic cell population) and adherent (ADH) cells were separated and counted using an electronic cell counter (Coulter Corporation, Hialea, Fla.). SDR cells were counted with the lower threshold setting at 6.3_(m and were defined as the apoptotic cells dying in response to cultivation in serum-free-media. Approximately 95% of the SDR cells are confirmed to be apoptotic as previously shown by size, ultrastructure and DNA fragmentation analysis. Adherent cells were removed by treatment with a Hanks' balanced salt solution containing 0.05% trypsin and 0.53_mM EDTA and were counted with the lower threshold setting at 11.01_(m. All samples were tested in triplicate and serum-deprived controls (BME only) were assayed at both the beginning and end of each experiment.

[2] = Electrophoresis radiobinding assay (native polyacrylamide gel); assay type: binding; details: FIG. 9 and other experiments
Experimental: Electrophoresis radiobinding assay. Proteins were analyzed on native polyacrylamide gels following incubation with ^3H-labeled 18:1-LPA. ^3H-labeled lysophosphatidic acid (1-oleyl) (DuPont NEN Products, Boston, Mass.) was added to tested proteins at 1 nM labeled 18:1-LPA/45_(g protein. Mixtures were incubated at a bicarbonate buffered saline/EDTA solution at 37° C. for 60 minutes. Incubated samples were mixed with native gel sample buffer (312_mM Tris pH 6.8, 50% glycerol, 0.05% bromophenol blue) and loaded entirely onto an 8% discontinuous native polyacrylamide gel. Following electrophoresis, proteins were fixed into the gels using an aqueous solution consisting of glacial acetic acid, 10% (vol/vol) and methan 130% (vol./vol.) solution. Fixed gels were then incubated for 60 minutes in autoradiography enhancer (EN^3HANCE, DuPont NEN Products, Boston, Mass.), and dried onto 3M chromatography paper (Whatman, Clifton, N.J.) and exposed to autoradiography film (X-Omat, Kodak, Rochester, N.Y.) for 72 hours at −80° C.

Molecule | elution profile / binding of LPA to protein [1] | Protein +10 (g/mL Soy LPA, percent cells saved from apoptosis) (C3H/10T1/2 cells) | Increase with LPA (C3H/10T1/2 cells) | Protein Alone (0.01%), percent cells saved from apoptosis (C3H/10T1/2 cells) | binding to 18:1-LPA, detectable band [2] | enhancement of the anti-apoptotic activity of soy-LPA (more than additive protection) (C3H/10T1/2 cells)
Cytochrome C: cytochrome C from bovine heart | LPA does not bind to this protein | 54.6% | +38.4% | 16.2% |  | 
Albumin (Fatty Acid Depleted): fatty acid depleted (FAD) bovine serum albumin (BSA) | most of the LPA was bound to BSA | 58.7% | +57.8% | 0.9% | bind to 18:1-LPA | 
Acyl Carrier Protein: acyl carrier protein from E. coli |  | 36.2% | +28.1% | 8.1% | did not yield detectable bands | to a lesser degree
B1 |  | 15.I | +7.2% | 7.9% | produce a detectable band | did not enhance
